From patent publication US7365082B2, “N-(substituted arylmethyl)-4-(disubstituted methyl)piperidines and piperazines” (Bayer CropScience AG, priority 2002, dated 2008)

Test system: tobacco budworm (Heliothis virescens [Fabricius])
Assay: surface-treated diet test against tobacco budworm
Format: in vivo
Conditions: 0.25 millimoles of candidate insecticide on the surface of the diet, second instar larvae, five-day exposure; for Percent Mortality: compared to the total number of insects infested; for Percent Growth Inhibition: inhibition of insect weight relative to untreated controls
Protocol: Candidate insecticides were evaluated for activity against the tobacco budworm (Heliothis virescens [Fabricius]) in a surface-treated diet test.
In this test one mL of molten (65-70° C.) wheat germ-based artificial diet was pipetted into each well of a four by six (24 well) multi-well plate (ID# 430345-15.5 mm dia.×17.6 mm deep; Corning Costar Corp., One Alewife Center, Cambridge, Mass. 02140). The diet was allowed to cool to ambient temperature before treatment with candidate insecticide.
For a determination of insecticidal activity, solutions of the candidate insecticides were prepared for testing using a Packard 204DT Multiprobe® Robotic System (Packard Instrument Company, 800 Research Parkway, Meriden, Conn. 06450), in which the robot first diluted a standard 50 millimolar DMSO solution of candidate insecticide with a 1:1 water/acetone solution (V/V) in a ratio of 1:7 stock solution to water/acetone. The robot subsequently pipetted 40 microliters of the so-prepared solution onto the surface of the diet in each of three wells in the 24 multi-well plate. The process was repeated with solutions of seven other candidate insecticides. Once treated, the contents of the multi-well plate were allowed to dry, leaving 0.25 millimoles of candidate insecticide on the surface of the diet, or a concentration of 0.25 millimolar. Appropriate untreated controls containing only DMSO on the diet surface were also included in this test.
For evaluations of the insecticidal activity of a candidate insecticide at varying rates of application, the test was established as described above using sub-multiples of the standard 50 millimolar DMSO solution of candidate insecticide. For example, the standard 50 millimolar solution was diluted by the robot with DMSO to give 5, 0.5, 0.05, 0.005, 0.0005 millimolar, or more dilute solutions of the candidate insecticide. In these evaluations there were six replicates of each rate of application placed on the surface of the diet in the 24 multi-well plate, for a total of four rates of application of candidate insecticide in each plate.
In each well of the test plate was placed one second instar tobacco budworm larvea, each weighing approximately five milligrams. After the larvae were placed in each well, the plate was sealed with clear polyfilm adhesive tape. The tape over each well was perforated to ensure an adequate air supply. The plates were then held in a growth chamber at 25° C. and 60% relative humidity for five days (light 14 hours/day).
After the five-day exposure period insecticidal activity for each rate of application of candidate insecticide was assessed as percent inhibition of insect weight relative to the weight of insects from untreated controls, and percent mortality when compared to the total number of insects infested.
The test compounds of formula I are identified by numbers that correspond to those in Table 1.

Structure (SMILES) | Percent Mortality | Percent Growth Inhibition
O=C(c1ccc(C(F)(F)F)cc1)C1CCNCC1 [Compound 3, 4-piperidyl 4-(trfluoromethyl)phenyl ketone] | 100% | 100%
O=C(c1ccc(OC(F)(F)F)cc1)C1CCN(Cc2ccc(F)cc2)CC1 [Compound 27] | 0% | 97%
CCCOc1ccc(CN2CCC(C(=O)c3ccc(OC(F)(F)F)cc3)CC2)cc1 [Compound 43] | 100% | 100%
O=C(c1ccc(OC(F)(F)F)cc1)C1CCN(Cc2ccc(-c3ccccn3)cc2)CC1 [Compound 62] | 100% | 95%
Cn1nnc(-c2ccc(CN3CCC(C(=O)c4ccc(OC(F)(F)F)cc4)CC3)cc2)n1 [Compound 67] | 100% | 95%
CCn1nnc(-c2ccc(CN3CCC(C(=O)c4ccc(OC(F)(F)F)cc4)CC3)cc2)n1 [Compound 72, 1-{[4-(2-ethyl(1,2,3,4-tetraazol-5-yl))phenyl]methyl}(4-piperidyl)4-(trifluoromethoxy)phenyl ketone] | – | 95%
CC(C)NN=C(c1ccc(C(F)(F)F)cc1)C1CCN(Cc2ccc(-c3nnn(C)n3)cc2)CC1 [Compound 91] | 0% | 79%
CCn1nnc(-c2ccc(CN3CCC(C(=NNc4ccccn4)c4ccc(OC(F)(F)F)cc4)CC3)cc2)n1 [Compound 92] | 0% | 45%
CCn1nnc(-c2ccc(CN3CCC(C(=Cc4ccc(OC(F)(F)F)cc4)c4ccc(Cl)cc4)CC3)cc2)n1 [Compound 94] | 100% | 100%
COc1ccc(CN2CCC(C(=NNc3ccc(OC(F)(F)F)cc3)c3ccc(OC(F)(F)F)cc3)CC2)cc1 [Compound 96] | 100% | 96%
CCCOc1ccc(CN2CCC(C(=NNc3ccc(OC(F)(F)F)cc3)c3ccc(OC(F)(F)F)cc3)CC2)cc1 [Compound 97] | 100% | 100%
CCn1nnc(-c2ccc(CN3CCC(C(=NNc4ccc(C)cc4)c4ccc(OC(F)(F)F)cc4)CC3)cc2)n1 [Compound 113] | 100% | 100%
CCn1nnc(-c2ccc(CN3CCC(C(=NNc4ccc(C(C)C)cc4)c4ccc(OC(F)(F)F)cc4)CC3)cc2)n1 [Compound 114] | 100% | 100%
CCn1nnc(-c2ccc(CN3CCC(C(=NNc4ccc(OC)cc4)c4ccc(OC(F)(F)F)cc4)CC3)cc2)n1 [Compound 116] | 100% | 100%
CCn1nnc(-c2ccc(CN3CCC(C(=NNc4ccc(C(F)(F)F)cc4)c4ccc(C(F)(F)F)cc4)CC3)cc2)n1 [Compound 118] | 100% | 96%
CCn1nnc(-c2ccc(CN3CCC(C(=NNc4ccc(OC(F)(F)F)cc4)c4ccc(C(F)(F)F)cc4)CC3)cc2)n1 [Compound 119] | 100% | 100%
CCn1nnc(-c2ccc(CN3CCC(C(=NNc4ccccc4C(F)(F)F)c4ccc(OC(F)(F)F)cc4)CC3)cc2)n1 [Compound 120] | 0% | 40%
CCn1nnc(-c2ccc(CN3CCC(C(=NNc4cccc(C(F)(F)F)c4)c4ccc(OC(F)(F)F)cc4)CC3)cc2)n1 [Compound 121] | 100% | 100%
CCn1nnc(-c2ccc(CN3CCC(C(=NNc4ccc(C(F)(F)F)cc4)c4ccc(OC(F)(F)F)cc4)CC3)cc2)n1 [Compound 122] | 100% | 96%
Cn1nnc(-c2ccc(CN3CCC(C(=NNc4ccc(OC(F)(F)F)cc4)c4ccc(OC(F)(F)F)cc4)CC3)cc2)n1 [Compound 123] | 100% | 100%
CCn1nnc(-c2ccc(CN3CCC(C(=NNc4ccc(OC(F)(F)F)cc4)c4ccc(OC(F)(F)F)cc4)CC3)cc2)n1 [Compound 124] | 100% | 100%

Structure (SMILES) | Percent Mortality | Percent Growth Inhibition
CCn1nnc(-c2ccc(CN3CCC(C(=NNc4ccc(S(N)(=O)=O)cc4)c4ccc(OC(F)(F)F)cc4)CC3)cc2)n1 [Compound 125] | 100% | 100%
CCn1nnc(-c2ccc(CN3CCC(C(=NNc4ccc([N+](=O)[O-])cc4)c4ccc(OC(F)(F)F)cc4)CC3)cc2)n1 [Compound 126] | 100% | 100%
CCn1nnc(-c2ccc(CN3CCC(C(=NNCc4ccc(C(F)(F)F)cc4)c4ccc(OC(F)(F)F)cc4)CC3)cc2)n1 [Compound 127] | 100% | 100%
CCn1nnc(-c2ccc(CN3CCC(C(=NNCc4ccc(OC(F)(F)F)cc4)c4ccc(OC(F)(F)F)cc4)CC3)cc2)n1 [Compound 128] | 0% | 96%
CCn1nnc(-c2ccc(CN3CCC(C(=NNS(=O)(=O)c4ccc(C(F)(F)F)cc4)c4ccc(OC(F)(F)F)cc4)CC3)cc2)n1 [Compound 129] | 100% | 95%
CCn1nnc(-c2ccc(CN3CCC(C(=NNS(=O)(=O)c4ccc(OC(F)(F)F)cc4)c4ccc(OC(F)(F)F)cc4)CC3)cc2)n1 [Compound 130] | 100% | 100%
O=C(NN=C(c1ccc(OC(F)(F)F)cc1)C1CCN(Cc2ccc(Oc3ccccn3)cc2)CC1)c1ccc(Cl)cc1 [Compound 131] | 50% | 100%
O=C(NN=C(c1ccc(OC(F)(F)F)cc1)C1CCN(Cc2ccc(Oc3ccccn3)cc2)CC1)c1ccc(C(F)(F)F)cc1 [Compound 132] | 83% | 100%
Cn1nnc(-c2ccc(CN3CCC(C(=NNC(=O)c4ccccc4Cl)c4ccc(OC(F)(F)F)cc4)CC3)cc2)n1 [Compound 136] | 76% | 0%
Cn1nnc(-c2ccc(CN3CCC(C(=NNC(=O)c4cccc(Cl)c4)c4ccc(OC(F)(F)F)cc4)CC3)cc2)n1 [Compound 137] | 100% | 100%
Cn1nnc(-c2ccc(CN3CCC(C(=NNC(=O)c4ccc(Cl)cc4)c4ccc(Cl)cc4)CC3)cc2)n1 [Compound 138] | 0% | 14%
Cn1nnc(-c2ccc(CN3CCC(C(=NNC(=O)c4ccc(Cl)cc4)c4ccc(OC(F)(F)F)cc4)CC3)cc2)n1 [Compound 139] | 100% | 100%
Cn1nnc(-c2ccc(CN3CCC(C(=NNC(=O)c4ccc(Br)cc4)c4ccc(OC(F)(F)F)cc4)CC3)cc2)n1 [Compound 140] | 100% | 100%
Cn1nnc(-c2ccc(CN3CCC(C(=NNC(=O)c4cccc(F)c4)c4ccc(OC(F)(F)F)cc4)CC3)cc2)n1 [Compound 142] | 67% | 100%
Cn1nnc(-c2ccc(CN3CCC(C(=NNC(=O)c4ccc(F)cc4)c4ccc(OC(F)(F)F)cc4)CC3)cc2)n1 [Compound 143] | 17% | 87%
Cn1nnc(-c2ccc(CN3CCC(C(=NNC(=O)c4ccc(I)cc4)c4ccc(OC(F)(F)F)cc4)CC3)cc2)n1 [Compound 144] | 100% | 100%
Cc1ccc(C(=O)NN=C(c2ccc(OC(F)(F)F)cc2)C2CCN(Cc3ccc(-c4nnn(C)n4)cc3)CC2)cc1 [Compound 145] | 100% | 100%
COc1ccc(C(=O)NN=C(c2ccc(OC(F)(F)F)cc2)C2CCN(Cc3ccc(-c4nnn(C)n4)cc3)CC2)cc1 [Compound 146] | 100% | 100%
CCn1nnc(-c2ccc(CN3CCC(C(=NNC(=O)c4ccc(C(F)(F)F)cc4)c4ccc(OC(F)(F)F)cc4)CC3)cc2)n1 [Compound 147] | 100% | 92%
Cn1nnc(-c2ccc(CN3CCC(C(=NNC(=O)c4ccc(OC(F)(F)F)cc4)c4ccc(OC(F)(F)F)cc4)CC3)cc2)n1 [Compound 148] | 100% | 100%
